Measurements published in patent publication US8637516B2 (IRM LLC, priority 2010, dated 2014).

Tests used:
[1] = molecular target: T1, Ba/F3 cells transformed with human Tel-TrkA (Homo sapiens, UniProt P04629); test: Proliferation of Ba/F3 cells transformed with human Tel-TrkA (Ba/F3 Tel-TrkA); assay type: cell-based; conditions: Table 1; 48 hours, Bright Glo luminescence; read-out: Ba/F3 Tel-TrkA
T1 construct: expressed in transfected cells; host or cells: Ba/F3 murine hematopoietic progenitor cells (luciferase expressing); the other entry of the earlier key: ETV6 (P41212, Transcription factor ETV6)
T1 sequence (P04629 510-796 limits assumed): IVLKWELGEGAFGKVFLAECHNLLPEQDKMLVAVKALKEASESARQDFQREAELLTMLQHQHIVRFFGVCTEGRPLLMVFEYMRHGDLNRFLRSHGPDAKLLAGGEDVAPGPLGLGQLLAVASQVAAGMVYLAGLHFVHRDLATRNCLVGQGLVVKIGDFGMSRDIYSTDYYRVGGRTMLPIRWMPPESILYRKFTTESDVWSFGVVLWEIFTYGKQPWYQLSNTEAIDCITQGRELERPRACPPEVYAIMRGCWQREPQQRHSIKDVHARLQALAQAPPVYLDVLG
Source text: Compound dilutions were made in 384 well plates.
The emited luminiscence is quantified using ViewLux (PerkinElmer).

parental Ba/F3 cells = test: Proliferation of parental (untransformed, wt) Ba/F3 cells (BAF3/WT); assay type: cell-based, murine; conditions: Mus musculus, Table 1, parental cells with IL3, 48 hours
In short: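 Parental Ba/F3 cells, maintained with mouse IL-3, were plated at 700 cells/well with compound (0.17 nM to 10 uM, 3-fold dilutions). After 48 h at 37 °C, proliferation was read by Bright-Glo luminescence.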

Structure (SMILES)	IC50 [1] [µM]	IC50 (parental Ba/F3 cells) [µM]
O=C(NCc1ccc(Cl)nc1)c1cnc2ccc(N3CCC[C@@H]3c3cccc(F)c3)nn12 [X-57]	0.19	> 10
CC(C)(C)OC(=O)N1CC[C@@H](NC(=O)c2cnc3ccc(N4CCC[C@@H]4c4cccc(F)c4)nn23)C1 [X-62]	0.91	> 10
CN(C)CCNC(=O)c1cnc2ccc(N3CCC[C@@H]3c3cccc(F)c3)nn12 [X-56]	0.676	> 10
O=C(c1cnc2ccc(N3CCC[C@@H]3c3cccc(F)c3)nn12)C(F)F [X-124]	0.844	> 10
O=C(NC[C@H](O)CO)c1cnc2ccc(N3CCC[C@@H]3c3cccc(F)c3)nn12 [X-105]	0.388	> 10
CCOC(=O)c1cnc2ccc(N3C[C@@H](F)C[C@@H]3c3cccc(F)c3)nn12 [X-165, ethyl 6-((2R,4S)-4-fluoro-2-(3-fluorophenyl)pyrrolidin-1-yl)imidazo[1,2-b]pyridazine-3-carboxylate]	0.004	> 10
CCOC(=O)c1cnc2ccc(N3CCCCC3c3cccc(F)c3)nn12 (centres unmarked) [X-156, ethyl 6-(2-(3-fluorophenyl)piperidin-1-yl)imidazo[1,2-b]pyridazine-3-carboxylate]	0.093	> 10
CCN(CC)CCCNC(=O)c1cnc2ccc(N3CCC[C@H]3c3cccc(F)c3)nn12 [X-40]	0.951	> 10
COc1ccc(OCC(=O)Nc2cnc3ccc(N4CCC[C@@H]4c4cccc(F)c4)nn23)cc1 [X-186]	0.078	> 10
COC(=O)[C@@H](CO)NC(=O)c1cnc2ccc(N3CCC[C@@H]3c3cccc(F)c3)nn12 [X-98]	0.354	> 10
CC(C)NC(=O)c1ccc(F)cc1C1CC(F)(F)CN1c1ccc2ncc(C(N)=O)n2n1 (centres unmarked) [X-250]	0.064	> 10
CCONC(=O)c1cnc2ccc(N3CCC[C@@H]3c3cccc(F)c3)nn12 [X-149]	0.023	> 10
O=C(NCCO)c1cnc2ccc(N3CCC[C@@H]3c3cccc(F)c3)nn12 [X-79]	0.061	> 10
O=C(NC1CCS(=O)(=O)C1)c1cnc2ccc(N3CCC[C@@H]3c3cccc(F)c3)nn12 (some centres unmarked) [X-88]	0.053	> 10
NC(=O)c1cnc2ccc(N3C[C@@H](F)C[C@@H]3c3cccc(F)c3)nn12 [X-7, 6-((2R,4S)-4-fluoro-2-(3-fluorophenyl)pyrrolidin-1-yl)imidazo[1,2-b]pyridazine-3-carboxamide]	0.005	3.56
O=C(NC1CCNCC1)c1cnc2ccc(N3C[C@@H](F)C[C@@H]3c3cccc(F)c3)nn12 [X-120]	0.331	> 10
COC(=O)NC(=O)c1cnc2ccc(N3CC(F)(F)C[C@@H]3c3cccc(F)c3)nn12 [X-249]	0.018	> 10
NC(=O)c1cnc2ccc(N3CCOC[C@H]3c3cccc(F)c3)nn12 [X-17, (R)-6-(3-(3-fluorophenyl)morpholino)imidazo[1,2-b]pyridazine-3-carboxamide]	0.328	> 10
CC1(C)[C@H]2CC[C@@H](CNC(=O)c3cnc4ccc(N5CCC[C@@H]5c5cccc(F)c5)nn34)[C@@H]1C2 [X-110]	0.207	> 9.76
O=C(NOCCO)c1cnc2ccc(N3CCC[C@@H]3c3cccc(F)c3)nn12 [X-147]	0.031	> 10
CCONC(=O)c1cnc2ccc(N3C[C@@H](F)C[C@@H]3c3cccc(F)c3)nn12 [X-142, N-ethoxy-6-((2R,4S)-4-fluoro-2-(3-fluorophenyl)pyrrolidin-1-yl)imidazo[1,2-b]pyridazine-3-carboxamide]	0.001	6.69
C[C@H](O)C(=O)N1CCC(NC(=O)c2cnc3ccc(N4CCC[C@@H]4c4cccc(F)c4)nn23)CC1 [X-34]	0.076	> 10

Structure (SMILES)	IC50 [1] [µM]	IC50 (parental Ba/F3 cells) [µM]
O=C(NCCC1CCCO1)c1cnc2ccc(N3CCC[C@@H]3c3cccc(F)c3)nn12 (some centres unmarked) [X-23]	0.092	> 10
CCOCC(=O)Nc1cnc2ccc(N3CCC[C@@H]3c3cccc(F)c3)nn12 [X-168, (R)-2-ethoxy-N-(6-(2-(3-fluorophenyl)pyrrolidin-1-yl)imidazo[1,2-b]pyridazin-3-yl)acetamide]	0.017	> 10
NC(=NO)c1cnc2ccc(N3CCCC3c3cccc(F)c3)nn12 (centres unmarked) [X-226]	0.165	> 10
[2H][C@]1(c2cccc(F)c2)CCCN1c1ccc2ncc(C(N)=O)n2n1 [X-9]	0.012	> 10
O=C(NC[C@H]1CCCO1)c1cnc2ccc(N3CCC[C@@H]3c3cccc(F)c3)nn12 [X-84]	0.03	> 10
NNC(=O)c1cnc2ccc(N3CCC[C@@H]3c3cccc(F)c3)nn12 [X-155]	0.242	> 10
NC(=O)c1cnc2ccc(N3CCCCC3c3cccc(F)c3)nn12 (centres unmarked) [X-18]	0.027	> 10
O=C(NCC1CCC1)c1cnc2ccc(N3CCC[C@@H]3c3cccc(F)c3)nn12 [X-22]	0.047	> 10
O=C(N[C@@H]1c2ccccc2C[C@H]1O)c1cnc2ccc(N3CCC[C@@H]3c3cccc(F)c3)nn12 [X-106]	0.003	> 10
O=C(NCCc1ccc(F)cc1)c1cnc2ccc(N3CCC[C@@H]3c3cccc(F)c3)nn12 [X-37]	0.137	> 10
[2H]C1([2H])N(c2ccc3ncc(C(=O)OCC)n3n2)C([2H])(c2cccc(F)c2)C([2H])([2H])C1([2H])[2H] (centres unmarked) [X-163]	0.079	> 10
NC(=O)c1cnc2ccc(N3CCOCC3c3cccc(F)c3)nn12 (racemic) [X-16, 6-(3-(3-fluorophenyl)morpholino)imidazo[1,2-b]pyridazine-3-carboxamide]	0.614	> 10
O=C(NC1CCC1)c1cnc2ccc(N3CCC[C@@H]3c3cccc(F)c3)nn12 [X-46]	0.02	> 10
CCOC(=O)Nc1cnc2ccc(N3CCC[C@@H]3c3cccc(F)c3)nn12 [X-236, (R)-ethyl 6-(2-(3-fluorophenyl)pyrrolidin-1-yl)imidazo[1,2-b]pyridazin-3-ylcarbamate]	0.545	> 10
NC(=O)c1cnc2ccc(N3CCCC3c3cccc(F)c3)nn12 (centres unmarked) [X-5, 6-(2-(3-fluorophenyl)pyrrolidin-1-yl)imidazo[1,2-b]pyridazine-3-carboxamide]	0.117	> 10
O=C(NCc1ccccc1F)c1cnc2ccc(N3CCC[C@@H]3c3cccc(F)c3)nn12 [X-69]	0.104	> 10
O=C(NOC1CCCCO1)c1cnc2ccc(N3CCC[C@@H]3c3cccc(F)c3)nn12 (some centres unmarked) [X-144]	0.128	> 10
CC(C)CNC(=O)c1cnc2ccc(N3CCC[C@@H]3c3cccc(F)c3)nn12 [X-94]	0.016	> 10
NC(=O)c1cnc2ccc(N3CCCC[C@@H]3c3cccc(F)c3)nn12 [X-19]	0.079	> 10
O=C(NCCCl)Nc1cnc2ccc(N3CCC[C@H]3c3cccc(F)c3)nn12 [X-209]	0.252	> 10
[2H]C1(c2cccc(F)c2)CCCN1c1ccc2ncc(C(N)=O)n2n1 (centres unmarked) [X-8, 6-(2-(3-fluorophenyl)pyrrolidin-1-yl)imidazo[1,2-b]pyridazine-3-carboxamide]	0.15	> 10
